In PMC9481151, “Discovery of new symmetrical and asymmetrical nitrile-containing 1,4-dihydropyridine derivatives as dual kinases and P-glycoprotein inhibitors: synthesis, in vitro assays, and in silico studies” (Journal of Enzyme Inhibition and Medicinal Chemistry, 2022):

Tests used:
[1] = test system: RPMI-8226; test: NCI single dose (10 µM) SRB screen; assay type: cell-based, human; conditions: leukaemia, 48 h
[2] = test system: CCRF-CEM; test: NCI single dose (10 µM) SRB screen; assay type: cell-based, human; conditions: leukaemia, 48 h
[3] = test system: NCI-H226; test: NCI single dose (10 µM) SRB screen; assay type: cell-based, human; conditions: non-small cell lung cancer, 48 h
[4] = test system: COLO 205; test: NCI single dose (10 µM) SRB screen; assay type: cell-based, human; conditions: colon cancer, 48 h
[5] = test system: SNB-19; test: NCI single dose (10 µM) SRB screen; assay type: cell-based, human; conditions: CNS cancer, 48 h
[6] = test system: K-562; test: NCI single dose (10 µM) SRB screen; assay type: cell-based, human; conditions: leukaemia, 48 h
[7] = test system: ACHN; test: NCI single dose (10 µM) SRB screen; assay type: cell-based, human; conditions: renal cancer, 48 h
[8] = test system: PC-3; test: NCI single dose (10 µM) SRB screen; assay type: cell-based, human; conditions: prostate cancer, 48 h
[9] = test system: UO-31; test: NCI single dose (10 µM) SRB screen; assay type: cell-based, human; conditions: renal cancer, 48 h
[10] = test system: NCI-H322M; test: NCI single dose (10 µM) SRB screen; assay type: cell-based; conditions: non-small cell lung cancer, 48 h
[11] = test system: T-47D; test: NCI single dose (10 µM) SRB screen; assay type: cell-based, human; conditions: breast cancer, 48 h
[12] = test system: HCT-116; test: NCI single dose (10 µM) SRB screen; assay type: cell-based, human; conditions: colon cancer, 48 h
[13] = test system: SK-MEL-2; test: NCI single dose (10 µM) SRB screen; assay type: cell-based, human; conditions: melanoma, 48 h
[14] = test system: RXF 393; test: NCI single dose (10 µM) SRB screen; assay type: cell-based, human; conditions: renal cancer, 48 h
[15] = test system: Pseudomonas aeruginosa; test: Agar well diffusion method
[16] = test system: MCF7; test: NCI single dose (10 µM) SRB screen; assay type: cell-based, human; conditions: breast cancer, 48 h
[17] = test system: 786-0; test: NCI single dose (10 µM) SRB screen; assay type: cell-based, human; conditions: renal cancer, 48 h
[18] = test system: M14; test: NCI single dose (10 µM) SRB screen; assay type: cell-based, human; conditions: melanoma, 48 h
[19] = test system: Aspergillus flavus; test: Agar well diffusion method
[20] = test system: SF-295; test: NCI single dose (10 µM) SRB screen; assay type: cell-based, human; conditions: CNS cancer, 48 h
[21] = test system: IGROV1; test: NCI single dose (10 µM) SRB screen; assay type: cell-based, human; conditions: ovarian cancer, 48 h
[22] = test system: HL-60(TB); test: NCI single dose (10 µM) SRB screen; assay type: cell-based, human; conditions: leukaemia, 48 h
[23] = test system: CAKI-1; test: NCI single dose (10 µM) SRB screen; assay type: cell-based, human; conditions: renal cancer, 48 h
[24] = test system: Escherichia coli; test: Agar well diffusion method
[25] = test system: NCI-H522; test: NCI single dose (10 µM) SRB screen; assay type: cell-based, human; conditions: non-small cell lung cancer, 48 h
[26] = test system: UACC-62; test: NCI single dose (10 µM) SRB screen; assay type: cell-based, human; conditions: melanoma, 48 h
[27] = test system: HCC-2998; test: NCI single dose (10 µM) SRB screen; assay type: cell-based, human; conditions: colon cancer, 48 h
[28] = test system: SK-MEL-28; test: NCI single dose (10 µM) SRB screen; assay type: cell-based, human; conditions: melanoma, 48 h
[29] = test system: OVCAR-4; test: NCI single dose (10 µM) SRB screen; assay type: cell-based, human; conditions: ovarian cancer, 48 h
[30] = test system: KM12; test: NCI single dose (10 µM) SRB screen; assay type: cell-based, human; conditions: colon cancer, 48 h
[31] = test system: SN12C; test: NCI single dose (10 µM) SRB screen; assay type: cell-based, human; conditions: renal cancer, 48 h
[32] = test system: NCI-H460; test: NCI single dose (10 µM) SRB screen; assay type: cell-based, human; conditions: non-small cell lung cancer, 48 h
[33] = test system: MALME-3M; test: NCI single dose (10 µM) SRB screen; assay type: cell-based, human; conditions: melanoma, 48 h
[34] = test system: Bacillus subtilis; test: Agar well diffusion method
[35] = test system: HCT-15; test: NCI single dose (10 µM) SRB screen; assay type: cell-based, human; conditions: colon cancer, 48 h
[36] = test system: TK-10; test: NCI single dose (10 µM) SRB screen; assay type: cell-based, human; conditions: renal cancer, 48 h
[37] = test system: OVCAR-5; test: NCI single dose (10 µM) SRB screen; assay type: cell-based, human; conditions: ovarian cancer, 48 h
[38] = test system: U251; test: NCI single dose (10 µM) SRB screen; assay type: cell-based, human; conditions: CNS cancer, 48 h
[39] = test system: SR; test: NCI single dose (10 µM) SRB screen; assay type: cell-based, human; conditions: leukaemia, 48 h
[40] = test system: NCI-H23; test: NCI single dose (10 µM) SRB screen; assay type: cell-based, human; conditions: non-small cell lung cancer, 48 h
[41] = test system: Candida albicans; test: Agar well diffusion method
[42] = test system: Staphylococcus aureus; test: Agar well diffusion method
[43] = test system: UACC-257; test: NCI single dose (10 µM) SRB screen; assay type: cell-based, human; conditions: melanoma, 48 h
[44] = test system: OVCAR-3; test: NCI single dose (10 µM) SRB screen; assay type: cell-based, human; conditions: ovarian cancer, 48 h
[45] = test system: NCI 60 cancer cell lines; test: NCI single dose (10 µM) SRB screen, mean over panel; assay type: cell-based, human; conditions: mean over 60 cell lines, 48 h
[46] = test system: SK-OV-3; test: NCI single dose (10 µM) SRB screen; assay type: cell-based, human; conditions: ovarian cancer, 48 h
[47] = test system: HS578T; test: NCI single dose (10 µM) SRB screen; assay type: cell-based, human; conditions: breast cancer, 48 h
[48] = test system: SNB-75; test: NCI single dose (10 µM) SRB screen; assay type: cell-based, human; conditions: CNS cancer, 48 h
[49] = test system: BT-549; test: NCI single dose (10 µM) SRB screen; assay type: cell-based, human; conditions: breast cancer, 48 h
[50] = test system: HOP-92; test: NCI single dose (10 µM) SRB screen; assay type: cell-based, human; conditions: non-small cell lung cancer, 48 h
[51] = test system: MDA-MB-468; test: NCI single dose (10 µM) SRB screen; assay type: cell-based, human; conditions: breast cancer, 48 h

Q: Which “GI% RPMI-8226” value [1] does the source give for `COC(=O)C1=C(C)NC(C)=C(C(=O)OC)C1c1cccc(C#N)c1` [Compound 1a, Dimethyl 4-(3-cyanophenyl)-2,6-dimethyl-1,4-dihydropyridine-3,5-dicarboxylate] here?
A: – (Only GI% ≥ 10 are shown)

Q: And the “GI% CCRF-CEM” value [2]?
A: – (Only GI% ≥ 10 are shown)

Q: And the “GI% NCI-H226” value [3]?
A: – (Only GI% ≥ 10 are shown)

Q: What about the “GI% COLO 205” value [4] of the same compound?
A: – (Only GI% ≥ 10 are shown)

Q: And the “GI% SNB-19” value [5]?
A: – (Only GI% ≥ 10 are shown)

Q: And the “GI% K-562” value [6]?
A: – (Only GI% ≥ 10 are shown)

Q: And the “GI% ACHN” value [7]?
A: – (Only GI% ≥ 10 are shown)

Q: What about the “GI% PC-3” value [8] of the same compound?
A: – (Only GI% ≥ 10 are shown)

Q: What about the “GI% UO-31” value [9] of the same compound?
A: – (Only GI% ≥ 10 are shown)

Q: And the “GI% NCI-H322M” value [10]?
A: – (Only GI% ≥ 10 are shown)

Q: And the “GI% T-47D” value [11]?
A: – (Only GI% ≥ 10 are shown)

Q: And the “GI% HCT-116” value [12]?
A: – (Only GI% ≥ 10 are shown)

Q: And the “GI% SK-MEL-2” value [13]?
A: – (Only GI% ≥ 10 are shown)

Q: And the “GI% RXF 393” value [14]?
A: – (Only GI% ≥ 10 are shown)

Q: What about the zone of inhibition at 1000 µg/mL ([15]; Pseudomonas aeruginosa, 24 h, read-out: Diameter of inhibition zone, P. aeruginosa) of the same compound?
A: 12 mm

Q: And the “% activity index, P. aeruginosa” value ([15]; relative to ciprofloxacin)?
A: 52.2%

Q: And the “GI% MCF7” value [16]?
A: – (Only GI% ≥ 10 are shown)

Q: What about the “GI% 786-0” value [17] of the same compound?
A: – (Only GI% ≥ 10 are shown)

Q: And the “GI% M14” value [18]?
A: – (Only GI% ≥ 10 are shown)

Q: What about the zone of inhibition at 1000 µg/mL ([19]; Aspergillus flavus, 24 h, read-out: Diameter of inhibition zone, A. flavus) of the same compound?
A: 15 mm

Q: And the “% activity index, A. flavus” value ([19]; relative to clotrimazole)?
A: 60%

Q: And the “GI% SF-295” value [20]?
A: – (Only GI% ≥ 10 are shown)

Q: And the “GI% IGROV1” value [21]?
A: – (Only GI% ≥ 10 are shown)

Q: And the “GI% HL-60(TB)” value [22]?
A: – (Only GI% ≥ 10 are shown)

Q: What about the “GI% CAKI-1” value [23] of the same compound?
A: – (Only GI% ≥ 10 are shown)

Q: What about the zone of inhibition at 1000 µg/mL ([24]; Escherichia coli, 24 h, read-out: Diameter of inhibition zone, E. coli) of the same compound?
A: 8 mm

Q: What about the “% activity index, E. coli” value ([24]; relative to ciprofloxacin) of the same compound?
A: 30.8%

Q: And the “GI% NCI-H522” value [25]?
A: – (Only GI% ≥ 10 are shown)

Q: What about the “GI% UACC-62” value [26] of the same compound?
A: – (Only GI% ≥ 10 are shown)

Q: What about the “GI% HCC-2998” value [27] of the same compound?
A: – (Only GI% ≥ 10 are shown)

Q: What about the “GI% SK-MEL-28” value [28] of the same compound?
A: – (Only GI% ≥ 10 are shown)

Q: And the “GI% OVCAR-4” value [29]?
A: – (Only GI% ≥ 10 are shown)

Q: And the “GI% KM12” value [30]?
A: – (Only GI% ≥ 10 are shown)

Q: What about the “GI% SN12C” value [31] of the same compound?
A: – (Only GI% ≥ 10 are shown)

Q: What about the “GI% NCI-H460” value [32] of the same compound?
A: – (Only GI% ≥ 10 are shown)

Q: And the “GI% MALME-3M” value [33]?
A: – (Only GI% ≥ 10 are shown)

Q: What about the zone of inhibition at 1000 µg/mL ([34]; Bacillus subtilis, 24 h, read-out: Diameter of inhibition zone, B. subtilis) of the same compound?
A: 9 mm

Q: And the “% activity index, B. subtilis” value ([34]; relative to ciprofloxacin)?
A: 39.1%

Q: And the “GI% HCT-15” value [35]?
A: – (Only GI% ≥ 10 are shown)

Q: And the “GI% TK-10” value [36]?
A: – (Only GI% ≥ 10 are shown)

Q: What about the “GI% OVCAR-5” value [37] of the same compound?
A: – (Only GI% ≥ 10 are shown)

Q: And the “GI% U251” value [38]?
A: – (Only GI% ≥ 10 are shown)

Q: What about the “GI% SR” value [39] of the same compound?
A: – (Only GI% ≥ 10 are shown)

Q: What about the “GI% NCI-H23” value [40] of the same compound?
A: – (Only GI% ≥ 10 are shown)

Q: What about the zone of inhibition at 1000 µg/mL ([41]; Candida albicans, 24 h, read-out: Diameter of inhibition zone, C. albicans) of the same compound?
A: 13 mm

Q: What about the “% activity index, C. albicans” value ([41]; relative to clotrimazole) of the same compound?
A: 48.1%

Q: What about the zone of inhibition at 1000 µg/mL ([42]; Staphylococcus aureus, 24 h, read-out: Diameter of inhibition zone, S. aureus) of the same compound?
A: 13 mm

Q: What about the “% activity index, S. aureus” value ([42]; relative to ciprofloxacin) of the same compound?
A: 54.2%

Q: What about the “GI% UACC-257” value [43] of the same compound?
A: – (Only GI% ≥ 10 are shown)

Q: What about the “GI% OVCAR-3” value [44] of the same compound?
A: – (Only GI% ≥ 10 are shown)

Q: And the “Mean GI%” value [45]?
A: −4%

Q: What about the “GI% SK-OV-3” value [46] of the same compound?
A: – (Only GI% ≥ 10 are shown)

Q: What about the “GI% HS578T” value [47] of the same compound?
A: – (Only GI% ≥ 10 are shown)

Q: What about the “GI% SNB-75” value [48] of the same compound?
A: 24%

Q: And the “GI% BT-549” value [49]?
A: – (Only GI% ≥ 10 are shown)

Q: What about the “GI% HOP-92” value [50] of the same compound?
A: – (Only GI% ≥ 10 are shown)

Q: And the “GI% MDA-MB-468” value [51]?
A: – (Only GI% ≥ 10 are shown)
